IC50 data for 27 compounds are collected here from patent publication US20240368127A1, “HSD17B13 INHIBITORS AND USES THEREOF” (FL2022-001, Inc., priority 2021, published 2024).

SMILES strings stand for the structures. Where a name gives a salt, the structure may show the parent alone.

The target in the assay is T1, Recombinant human HSD17B13 enzyme (Homo sapiens, UniProt Q7Z5P4).
T1 sequence (Q7Z5P4 20-300): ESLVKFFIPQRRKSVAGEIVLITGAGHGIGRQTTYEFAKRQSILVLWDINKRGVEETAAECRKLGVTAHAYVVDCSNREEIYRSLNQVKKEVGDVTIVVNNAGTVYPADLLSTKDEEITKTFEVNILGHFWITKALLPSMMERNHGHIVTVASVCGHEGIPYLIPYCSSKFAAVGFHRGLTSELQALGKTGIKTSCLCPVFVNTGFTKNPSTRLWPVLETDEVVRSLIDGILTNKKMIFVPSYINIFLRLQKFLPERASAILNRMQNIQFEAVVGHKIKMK
As to the kind of experiment: HSD17b13 NAD(P)H-Glo biochemical assay. Particulars: 50 μM estradiol, 1 mM NAD+, 37° C. for 3 hours; read-out: HSD17β13 IC50. Summed up:
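Enzyme preincubated with inhibitor 20 min at RT in 20 mM Tris pH7.4, 0.002% Tween-20, 0.02% BSA, then reacted 3 h at 37° C with 50 μM estradiol and 1 mM NAD+ (final). NADH formation read by NAD(P)H-Glo luminescence after 1 h at RT.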

With `Cc1nn(-c2cc(C(F)(F)F)c(F)c(O)c2F)c2ccc(N3CCN(S(C)(=O)=O)C[C@H]3Cc3ccccc3)cc12` [Compound 2.13, (R)-3-(5-(2-Benzyl-4-(methylsulfonyl)piperazin-1-yl)-3-methyl-1H-indazol-1-yl)-2,6-difluoro-5-(trifluoromethyl)phenol], the concentration for half-maximal inhibition (IC50) is ≤ 100 nM.
Next, `Cn1nc(-c2cc(C(F)(F)F)c(F)c(O)c2F)c2cnc(N3CC(=O)NC[C@H]3Cc3ccccc3)nc21` [Compound 15.09, (R)-5-Benzyl-4-(3-(2,4-difluoro-3-hydroxy-5-(trifluoromethyl)phenyl)-1-methyl-1H-pyrazolo[3,4-d]pyrimidin-6-yl)piperazin-2-one]: ≤ 100 nM; `Cc1nn(-c2cc(Cl)c(F)c(O)c2F)c2cnc(N3CCN(S(C)(=O)=O)C[C@H]3Cc3ccccc3)nc12` [Compound 2.35, (R)-3-(5-(2-Benzyl-4-(methylsulfonyl)piperazin-1-yl)-3-methyl-1H-pyrazolo[4,3-c]pyrimidin-1-yl)-5-chloro-2,6-difluorophenol]: ≤ 100 nM.
As for `Cc1nn(-c2ccc(F)c(O)c2F)c2cnc(N3CCN(S(C)(=O)=O)C[C@H]3Cc3ccccc3)cc12` [Compound 2.15, (R)-3-(5-(2-Benzyl-4-(methylsulfonyl)piperazin-1-yl)-3-methyl-1H-pyrazolo[3,4-c]pyridin-1-yl)-2,6-difluorophenol], the IC50 is ≤ 100 nM.
For `CS(=O)(=O)N1CCN(c2cc3cnn(-c4cc(C(F)(F)F)c(F)c(O)c4F)c3cn2)[C@H](Cc2ccccc2)C1` [Compound 2.19, (R)-3-(5-(2-Benzyl-4-(methylsulfonyl)piperazin-1-yl)-1H-pyrazolo[3,4-c]pyridin-1-yl)-2,6-difluoro-5-(trifluoromethyl)phenol] the value was ≤ 100 nM; for `Cn1nc(-c2cc(C(F)(F)F)c(F)c(O)c2F)c2cnc(N3CCO[C@@H](Cc4ccc(C(N)=O)cc4)C3)nc21` [Compound 12.04, (S)-4-((4-(3-(2,4-Difluoro-3-hydroxy-5-(trifluoromethyl)phenyl)-1-methyl-1H-pyrazolo[3,4-d]pyrimidin-6-yl)morpholin-2-yl)methyl)benzamide], ≤ 100 nM.
Next, `CS(=O)(=O)N1CCN(c2ccc3c(c2)c(N)nn3-c2cc(C(F)(F)F)c(F)c(O)c2F)[C@H](Cc2ccccc2)C1` [Compound 2.12, (R)-3-(3-Amino-5-(2-benzyl-4-(methylsulfonyl)piperazin-1-yl)-1H-indazol-1-yl)-2,6-difluoro-5-(trifluoromethyl)phenol]: ≤ 100 nM; `CC(=O)c1nn(-c2cc(C(F)(F)F)c(F)c(O)c2F)c2ccc(N3CCN(S(C)(=O)=O)C[C@H]3Cc3ccccc3)cc12` [Compound 2.08]: ≤ 100 nM.
Next, `Cn1nc(-c2cc(C(F)(F)F)c(F)c(O)c2F)c2cnc(N3CCO[C@@H](Cc4ccc(C#N)cc4)C3)nc21` [Compound 12.02, (S)-4-((4-(3-(2,4-Difluoro-3-hydroxy-5-(trifluoromethyl)phenyl)-1-methyl-1H-pyrazolo[3,4-d]pyrimidin-6-yl)morpholin-2-yl)methyl)benoznitrile]: ≤ 100 nM; `Cc1nn(-c2cc(C(F)(F)F)c(F)c(O)c2F)c2cnc(N3CCOC(Cc4ccccc4)C3)cc12` (stereo not drawn) [Compound 2.04, 3-(5-(2-Benzylmorpholino)-3-methyl-1H-pyrazolo[3,4-c]pyridin-1-yl)-2,6-difluoro-5-(trifluoromethyl)phenol]: ≤ 100 nM; `Cn1nc(-c2cc(C(F)(F)F)c(F)c(O)c2F)c2cnc(N3CCN(S(C)(=O)=O)C(CC4CC4)C3)nc21` (stereo not drawn) [Compound 5.33, 3-(6-(3-(Cyclopropylmethyl)-4-(methylsulfonyl)piperazin-1-yl)-1-methyl-1H-pyrazolo[3,4-d]pyrimidin-3-yl)-2,6-difluoro-5-(trifluoromethyl)phenol]: ≤ 100 nM.
With `Cn1nc(-c2cc(C(F)(F)F)c(F)c(O)c2F)c2cnc(N3CCOCC3Cc3cccnc3)nc21` (stereo not drawn) [Compound 15.07, 2,6-Difluoro-3-(1-methyl-6-(3-(pyridin-3-ylmethyl)morpholino)-1H-pyrazolo[3,4-d]pyrimidin-3-yl)-5-(trifluoromethyl)phenol], the IC50 is ≤ 100 nM.
As to `Cn1nc(-c2cc(C(F)(F)F)c(F)c(O)c2F)c2cnc(N3CCN(S(C)(=O)=O)CC3CC3CC3)nc21` (stereo not drawn) [Compound 11.13, 3-(6-(2-(Cyclopropylmethyl)-4-(methylsulfonyl)piperazin-1-yl)-1-methyl-1H-pyrazolo[3,4-d]pyrimidin-3-yl)-2,6-difluoro-5-(trifluoromethyl)phenol], the IC50 is ≤ 100 nM.
For `Cn1nc(-c2cc(C(F)(F)F)c(F)c(O)c2F)c2cnc(N3CCOC[C@@H]3CC3CCCCC3)nc21` [Compound 15.05, (S)-3-(6-(3-(Cyclohexylmethyl)morpholino)-1-methyl-1H-pyrazolo[3,4-d]pyrimidin-3-yl)-2,6-difluoro-5-(trifluoromethyl)phenol] the value was ≤ 100 nM; for `CS(=O)(=O)N1CCN(c2ccc(-n3nnc4cc(F)c(O)c(F)c43)cc2)C[C@H]1Cc1ccccc1` [Compound 1.03, (R)-1-(4-(3-Benzyl-4-(methylsulfonyl)piperazin-1-yl)phenyl)-5,7-difluoro-1H-benzo[d][1,2,3]triazol-6-ol], ≤ 100 nM; for `Cn1nc(-c2cc(C(F)(F)F)c(F)c(O)c2F)c2cnc(C3CCCN(Cc4ccccc4)C3)nc21` (stereo not drawn) [Compound 14.01, 3-(6-(1-Benzylpiperidin-3-yl)-1-methyl-1H-pyrazolo[3,4-d]pyrimidin-3-yl)-2,6-difluoro-5-(trifluoromethyl)phenol hydrochloride], 100 to 1000 nM.
For `CS(=O)(=O)N1CCN(c2cc3c(Cl)nn(-c4cc(C(F)(F)F)c(F)c(O)c4F)c3cn2)[C@H](Cc2ccccc2)C1` [Compound 2.20, (R)-3-(5-(2-Benzyl-4-(methylsulfonyl)piperazin-1-yl)-3-chloro-1H-pyrazolo[3,4-c]pyridin-1-yl)-2,6-difluoro-5-(trifluoromethyl)phenol], the IC50 was ≤ 100 nM.
Next, `CC1(Cc2ccccc2)CCN(c2ccc(-n3nnc4cc(F)c(O)c(F)c43)cc2)CC1` [Compound 1.10, 1-(4-(4-Benzyl-4-methylpiperidin-1-yl)phenyl)-5,7-difluoro-1H-benzo[d][1,2,3]triazol-6-ol]: ≤ 100 nM; `Oc1c(F)cc2nnn(-c3ccc(N4CCO[C@@H](Cc5ccccc5)C4)cc3)c2c1F` [Compound 1.04, (S)-1-(4-(2-Benzylmorpholino)phenyl)-5,7-difluoro-1H-benzo[d][1,2,3]triazol-6-ol]: 100 to 1000 nM.
Regarding `Cn1nc(-c2cc(C(F)(F)F)c(F)c(O)c2F)c2cnc(N3CCOC[C@H]3C(=O)NC3CCCCC3)nc21` [Compound 11.25, (S)-N-Cyclohexyl-4-(3-(2,4-difluoro-3-hydroxy-5-(trifluoromethyl)phenyl)-1-methyl-1H-pyrazolo[3,4-d]pyrimdiin-6-yl)morpholine-3-carboxamide], the IC50 is ≤ 100 nM.
For `Cn1nc(-c2cc(C(F)(F)F)c(F)c(O)c2F)c2cnc(N3CCCC[C@H]3Cc3ccccc3)nc21` [Compound 5.16, (S)-3-(6-(2-Benzylpiperidin-1-yl)-1-methyl-1H-pyrazolo[3,4-d]pyrimidin-3-yl)-2,6-difluoro-5-(trifluoromethyl)phenol] the value was ≤ 100 nM; for `Cn1nc(-c2cc(C(F)(F)F)c(F)c(O)c2F)c2cnc(N3CCOC(Cc4ccccc4)C3)nc21` (stereo not drawn) [Compound 5.02, 3-(6-(2-Benzylmorpholino)-1-methyl-1H-pyrazolo[3,4-d]pyrimidin-3-yl)-2,6-difluoro-5-(trifluoromethyl)phenol], ≤ 100 nM; for `CS(=O)(=O)N1CCN(c2ncc3c(cnn3-c3cc(O)c(F)c(C(F)(F)F)c3)n2)[C@H](Cc2ccccc2)C1` [Compound 2.36, (R)-5-(5-(2-Benzyl-4-(methylsulfonyl)piperazin-1-yl)-1H-pyrazolo[4,3-d]pyrimidin-1-yl)-2-fluoro-3-(trifluoromethyl)phenol], ≤ 100 nM.
As to `Cn1nc(-c2cc(C(F)(F)F)c(F)c(O)c2F)c2cnc(N3CCN(S(C)(=O)=O)CC3CC3CCCCC3)nc21` (stereo not drawn) [Compound 15, 3-(6-(2-(Cyclohexylmethyl)-4-(methylsulfonyl)piperazin-1-yl)-1-methyl-1H-pyrazolo[3,4-d]pyrimidin-3-yl)-2,6-difluoro-5-(trifluoromethyl)phenol], the IC50 is ≤ 100 nM.
For `Cn1nc(-c2cc(O)c(F)c(F)c2C#N)c2cnc(N3CCN(S(C)(=O)=O)C[C@H]3Cc3ccccc3)nc21` [Compound 11.15, (R)-6-(6-(2-Benzyl-4-(methylsulfonyl)piperazin-1-yl)-1-methyl-1H-pyrazolo[3,4-d]pyrimidin-3-yl)-2,3-difluoro-4-hydroxybenzonitrile] the value was ≤ 100 nM.
Next, `CN(C)C(=O)N1CCN(c2ncc3c(-c4cc(C(F)(F)F)c(F)c(O)c4F)nn(C)c3n2)[C@H](Cc2ccccc2)C1` [Compound 6.01, (R)-3-Benzyl-4-(3-(2,4-difluoro-3-hydroxy-5-(trifluoromethyl)phenyl)-1-methyl-1H-pyrazolo[3,4-d]pyrimidin-6-yl)-N,N-dimethylpiperazine-1-carboxamide]: ≤ 100 nM; `CN1CCN(c2ncc3c(-c4cc(C(F)(F)F)c(F)c(O)c4F)nn(C)c3n2)CC1Cc1ccccc1` (stereo not drawn) [Compound 5.07, 3-(6-(3-Benzyl-4-methylpiperazin-1-yl)-1-methyl-1H-pyrazolo[3,4-d]pyrimidin-3-yl)-2,6-difluoro-5-(trifluoromethyl)phenol]: ≤ 100 nM.

In general, IC50 refers to the concentration that inhibits the measured activity by half.
